Data: patent US8623870B2, “Pyridazinone derivatives” (Merck Patent GmbH, priority 2009, dated 2014)

Columns and labels:
Met kinase [1] = target: T1, Met kinase (Homo sapiens, UniProt P08581); test: Met kinase inhibition (cell); type: cell-based
Target sequence in this assay (P08581 25-1390): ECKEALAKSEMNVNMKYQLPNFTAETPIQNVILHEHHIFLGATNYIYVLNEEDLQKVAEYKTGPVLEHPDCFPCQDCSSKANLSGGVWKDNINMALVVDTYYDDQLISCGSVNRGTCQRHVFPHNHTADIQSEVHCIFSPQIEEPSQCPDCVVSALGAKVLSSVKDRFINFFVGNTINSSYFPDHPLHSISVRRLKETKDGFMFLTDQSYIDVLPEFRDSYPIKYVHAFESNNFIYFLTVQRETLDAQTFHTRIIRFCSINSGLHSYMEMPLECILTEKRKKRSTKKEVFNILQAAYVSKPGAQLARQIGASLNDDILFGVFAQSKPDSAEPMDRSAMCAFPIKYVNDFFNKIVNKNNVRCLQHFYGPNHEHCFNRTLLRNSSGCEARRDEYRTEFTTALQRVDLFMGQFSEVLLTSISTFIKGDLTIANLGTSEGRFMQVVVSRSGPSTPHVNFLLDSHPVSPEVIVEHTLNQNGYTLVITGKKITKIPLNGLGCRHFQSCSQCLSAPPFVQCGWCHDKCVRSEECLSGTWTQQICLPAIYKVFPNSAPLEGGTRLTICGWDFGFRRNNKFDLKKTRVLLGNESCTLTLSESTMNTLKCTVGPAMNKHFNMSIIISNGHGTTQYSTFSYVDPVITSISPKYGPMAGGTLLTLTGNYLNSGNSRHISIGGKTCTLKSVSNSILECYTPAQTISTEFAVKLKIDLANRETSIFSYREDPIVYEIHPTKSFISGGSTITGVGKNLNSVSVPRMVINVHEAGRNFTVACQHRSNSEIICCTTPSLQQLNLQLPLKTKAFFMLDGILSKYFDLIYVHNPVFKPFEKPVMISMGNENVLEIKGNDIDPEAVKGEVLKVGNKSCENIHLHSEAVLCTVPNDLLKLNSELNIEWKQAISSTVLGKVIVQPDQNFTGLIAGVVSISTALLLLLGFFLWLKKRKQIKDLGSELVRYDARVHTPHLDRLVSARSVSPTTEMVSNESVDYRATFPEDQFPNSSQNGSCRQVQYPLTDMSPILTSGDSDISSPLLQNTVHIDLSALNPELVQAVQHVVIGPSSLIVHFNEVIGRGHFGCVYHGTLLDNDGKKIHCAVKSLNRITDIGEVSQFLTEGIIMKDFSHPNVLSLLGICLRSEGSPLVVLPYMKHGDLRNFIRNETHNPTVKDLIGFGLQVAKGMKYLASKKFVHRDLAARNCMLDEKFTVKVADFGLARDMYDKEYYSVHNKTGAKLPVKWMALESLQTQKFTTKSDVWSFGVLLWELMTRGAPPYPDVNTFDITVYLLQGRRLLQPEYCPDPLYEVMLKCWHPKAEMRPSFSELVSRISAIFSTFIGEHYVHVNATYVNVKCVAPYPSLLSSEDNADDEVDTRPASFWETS

Met kinase [2] = target: T1, Met kinase; test: Met kinase inhibition, flashplate method (enzyme); type: biochemical; parameters: 6His (N); purchased Upstate 14-526; host or cells: Sf21 insect cells (S. frugiperda), baculovirus
Excerpt: According to the manufacturer's data (Met, active, upstate, catalogue No. 14-526), Met kinase is expressed for the purposes of protein production in insect cells (Sf21; S. frugiperda) and subsequent affinity-chromatographic purification as “N-terminal 6His-tagged” recombinant human protein in a baculovirus expression vector.
The test plates used are 96-well Flashplate® microtitre plates from Perkin Elmer (Cat. No. SMP200). The components of the kinase reaction described below are pipetted into the assay plate. The Met kinase and the substrate poly Ala-Glu-Lys-Tyr, (pAGLT, 6:2:5:1), are incubated for 3 hrs at room temperature with radioactively labelled ^33P-ATP in the presence and absence of test substances in a total volume of 100 μl. The reaction is terminated using 150 μl of a 60 mM EDTA solution. After incubation for a further 30 min at room temperature, the supernatants are filtered off with suction, and the wells are washed three times with 200 μl of 0.9% NaCl solution each time. The measurement of the bound radioactivity is carried out by means of a scintillation measuring instrument (Topcount NXT, Perkin-Elmer).
The full value used is the inhibitor-free kinase reaction. This should be approximately in the range 6000-9000 cpm. The pharmacological zero value used is staurosporin in a final concentration of 0.1 mM. The inhibitory values (IC50) are determined using the RS1_MTS program.
• 30 μl of assay buffer • 10 μl of substance to be tested in assay buffer with 10% of DMSO • 10 μl of ATP (final concentration 1 μM cold, 0.35 μCi of ^33P-ATP) • 50 μl of Met kinase/substrate mixture in assay buffer; • (10 ng of enzyme/well, 50 ng of pAGLT/well)
Assay Buffer: • 50 mM HEPES • 3 mM magnesium chloride • 3 μM sodium orthovanadate • 3 mM manganese(II) chloride • 1 mM dithiothreitol (DTT) • pH=7.5 (to be set using sodium hydroxide)
Stop Solution: • 60 mM Titriplex III (EDTA) • ^33P-ATP: Perkin-Elmer; • Met kinase: Upstate, Cat. No. 14-526, Stock 1 μg/10 μl; spec. activity 954 U/mg; • Poly-Ala-Glu-Lys-Tyr, 6:2:5:1: Sigma Cat. No. P1152 In-vivo Tests
Target sequence in this assay (P08581 974-1390 limits assumed): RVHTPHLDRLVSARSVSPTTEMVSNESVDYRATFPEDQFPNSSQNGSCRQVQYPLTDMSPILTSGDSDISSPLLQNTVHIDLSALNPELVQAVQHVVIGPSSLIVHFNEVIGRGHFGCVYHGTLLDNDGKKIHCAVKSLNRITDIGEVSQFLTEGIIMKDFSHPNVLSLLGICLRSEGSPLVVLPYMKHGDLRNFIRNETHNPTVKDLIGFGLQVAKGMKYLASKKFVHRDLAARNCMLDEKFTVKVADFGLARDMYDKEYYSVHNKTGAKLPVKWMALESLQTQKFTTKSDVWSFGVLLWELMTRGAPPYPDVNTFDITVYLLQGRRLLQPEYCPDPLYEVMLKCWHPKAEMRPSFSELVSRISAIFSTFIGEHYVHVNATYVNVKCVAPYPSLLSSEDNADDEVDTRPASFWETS

Row | IC50 (Met kinase [1]) | IC50 (Met kinase [2]) | SMILES
1 | 0.001 to 0.1 µM | 0.001 to 0.1 µM | O=c1ccc(-c2cc(F)cc(F)c2)nn1Cc1cccc(-c2ncc(-c3cnn(C4CCNCC4)c3)s2)c1 [Compound A1, 6-(3,5-difluorophenyl)-2-{3-[5-(1-piperidin-4-yl-1H-pyrazol-4-yl)thiazol-2-yl]benzyl}-2H-pyridazin-3-one]
2 | 0.001 to 0.1 µM | 0.001 to 0.1 µM | O=c1ccc(-c2cccc(F)c2)nn1Cc1cccc(-c2ncc(-c3cnn(C4CCNCC4)c3)s2)c1 [Compound A2, 6-(3-fluorophenyl)-2-{3-[5-(1-piperidin-4-yl-1H-pyrazol-4-yl)thiazol-2-yl]benzyl}-2H-pyridazin-3-one]
3 | 0.001 to 0.1 µM | 0.001 to 0.1 µM | O=c1ccc(-c2cc(F)cc(F)c2)nn1Cc1cccc(-c2ncc(-c3cnn(C4CCNCC4)c3)o2)c1 [Compound A6, 6-(3,5-difluorophenyl)-2-{3-[5-(1-piperidin-4-yl-1H-pyrazol-4-yl)oxazol-2-yl]benzyl}-2H-pyridazin-3-one]
4 | 0.001 to 0.1 µM | 0.001 to 0.1 µM | Cn1cc(-c2nc(-c3cccc(Cn4nc(-c5cc(F)cc(F)c5)ccc4=O)c3)no2)cn1 [Compound A8, 6-(3,5-difluorophenyl)-2-{3-[5-(1-methyl-1H-pyrazol-4-yl)-1,2,4-oxadiazol-3-yl]benzyl}-2H-pyridazin-3-one]
5 | 0.1 to 10 µM | – | O=c1ccc(-c2cc(F)cc(F)c2)nn1Cc1cccc(-c2noc(-c3ccco3)n2)c1 [Compound A9, 6-(3,5-difluorophenyl)-2-[3-(5-furan-2-yl-1,2,4-oxadiazol-3-yl)benzyl]-2H-pyridazin-3-one]
6 | 0.001 to 0.1 µM | 0.001 to 0.1 µM | Cc1ccc(-c2nc(-c3cccc(Cn4nc(-c5cc(F)cc(F)c5)ccc4=O)c3)no2)cn1 [Compound A10, 6-(3,5-difluorophenyl)-2-{3-[5-(6-methylpyridin-3-yl)-1,2,4-oxadiazol-3-yl]-benzyl}-2H-pyridazin-3-one]
